Results from ChEMBL document CHEMBL2331477, “Effect of helical conformation and side chain structure on γ-secretase inhibition by β-peptide foldamers: insight into substrate recognition” (J Med Chem, 2013).
Active and inactive are the calls of the source. No cut-off for these calls is given here.

Key:
Gamma-secretase [1] = assay: Inhibition of gamma-secretase (unknown origin) expressed in N2a NL/N cells coexpressing betaAPPNL and NotchdeltaE assessed as Abeta40 secretion by ELISA; type: cell-based, Homo sapiens
Gamma-secretase [2] = assay: Inhibition of gamma-secretase (unknown origin) expressed in N2a NL/N cells coexpressing betaAPPNL and NotchdeltaE assessed as Abeta42 secretion by ELISA; type: cell-based, Homo sapiens
[3] = molecular target: T1, Gamma-secretase (Homo sapiens) (UniProt Q96BI3+Q9NZ42+Q8WW43+P49768+Q92542+P49810); assay: Inhibition of gamma-secretase (unknown origin) expressed in N2a NL/N cells coexpressing betaAPPNL and NotchdeltaE assessed as Abeta42 secretion at 100 nM by ELISA; type: cell-based
[4] = molecular target: T1, Gamma-secretase (Homo sapiens); assay: Displacement of biotinylated PS1NTF from gamma-secretase (unknown origin); type: protein-complex assay
Gamma-secretase [5] = assay: Inhibition of gamma-secretase in human HEK293 cells expressing APPNL/NotchDeltaE/EGFP/UAS-firefly luciferase assessed as inhibition of IAbeta40 secretion by ELISA; type: cell-based
[6] = molecular target: T1, Gamma-secretase (Homo sapiens); assay: Inhibition of gamma-secretase (unknown origin) expressed in N2a NL/N cells coexpressing betaAPPNL and NotchdeltaE assessed as Abeta40 secretion at 100 nM by ELISA; type: cell-based
Gamma-secretase [7] = assay: Inhibition of gamma-secretase in human HEK293 cells expressing APPNL/NotchDeltaE/EGFP/UAS-firefly luciferase assessed as inhibition of notch intracellular cytoplasmic domain secretion by ELISA; type: cell-based
[8] = molecular target: T1, Gamma-secretase (Homo sapiens); assay: Ratio of IC50 for gamma-secretase-mediated inhibition of notch intracellular cytoplasmic domain secretion to IC50 for gamma-secretase-mediated inhibition of Abeta42 secretion in human HEK293 cells expressing APPNL/NotchDeltaE/EGFP/UAS-firefly luciferase by ELISA; type: cell-based
Gamma-secretase [9] = assay: Inhibition of gamma-secretase in human HEK293 cells expressing APPNL/NotchDeltaE/EGFP/UAS-firefly luciferase assessed as inhibition of Abeta42 secretion by ELISA; type: cell-based
[10] = molecular target: T1, Gamma-secretase (Homo sapiens); assay: Inhibition of gamma-secretase in human H4 glioma cells assessed as Abeta production at 0.1 to 10 µM by immunoblot analysis; type: cell-based

Structure (SMILES) | IC50 (Gamma-secretase [1]) [nM] | IC50 (Gamma-secretase [2]) [nM] | inhibition [3] | inhibition [6] | further results
CC(=O)N1CCC[C@@H]1C(=O)N1CCC[C@@H]1C(=O)N1CCC[C@@H]1C(=O)N1CCC[C@@H]1C(=O)N1CCC[C@@H]1C(=O)N1CCC[C@@H]1C(=O)N1CCC[C@@H]1C(=O)N1CCC[C@@H]1C(=O)N1CCC[C@@H]1C(=O)N1CCC[C@@H]1C(=O)N1CCC[C@@H]1C(N)=O | > 30000 | > 30000 | – | – | –
CC(=O)N1CCC[C@H]1C(=O)N1CCC[C@H]1C(=O)N1CCC[C@H]1C(=O)N1CCC[C@H]1C(=O)N1CCC[C@H]1C(=O)N1CCC[C@H]1C(N)=O | > 30000 | > 30000 | – | – | –
CC(=O)N[C@H]1CCC[C@@H]1C(=O)N[C@H]1CCC[C@@H]1C(=O)N[C@H]1CCC[C@@H]1C(=O)N[C@H]1CCC[C@@H]1C(=O)N[C@H]1CCC[C@@H]1C(=O)N[C@H](CO)CC(=O)N[C@H]1CCC[C@@H]1C(=O)N[C@H]1CCC[C@@H]1C(=O)N[C@H]1CCC[C@@H]1C(=O)N[C@H]1CCC[C@@H]1C(=O)N[C@H]1CCC[C@@H]1C(=O)N[C@H]1CCC[C@@H]1C(N)=O | – | – | inactive | inactive | –
CC(=O)N[C@H]1CCC[C@@H]1C(=O)N[C@H]1CCC[C@@H]1C(=O)N[C@H]1CCC[C@@H]1C(=O)N[C@H]1CCC[C@@H]1C(=O)N[C@H]1CCC[C@@H]1C(=O)N[C@H]1CCC[C@@H]1C(=O)N[C@H]1CCC[C@@H]1C(=O)N[C@H]1CCC[C@@H]1C(=O)N[C@@H](CC(=O)N[C@H]1CCC[C@@H]1C(=O)N[C@H]1CCC[C@@H]1C(=O)N[C@H]1CCC[C@@H]1C(N)=O)[C@@H](C)O | – | – | inactive | inactive | –
CC(=O)N1CCC[C@H]1C(=O)N1CCC[C@H]1C(=O)N1CCC[C@H]1C(=O)N1CCC[C@H]1C(=O)N1CCC[C@H]1C(=O)N1CCC[C@H]1C(=O)N1CCC[C@H]1C(=O)N1CCC[C@H]1C(=O)N1CCC[C@H]1C(=O)N1CCC[C@H]1C(=O)N1CCC[C@H]1C(N)=O | > 30000 | > 30000 | – | – | –
CC(=O)N[C@H]1CCC[C@@H]1C(=O)N[C@H]1CCC[C@@H]1C(=O)N[C@@H](C)CC(=O)N[C@H]1CCC[C@@H]1C(=O)N[C@H]1CCC[C@@H]1C(=O)N[C@H]1CCC[C@@H]1C(=O)N[C@H]1CCC[C@@H]1C(=O)N[C@H]1CCC[C@@H]1C(=O)N[C@H]1CCC[C@@H]1C(=O)N[C@H]1CCC[C@@H]1C(=O)N[C@H]1CCC[C@@H]1C(=O)N[C@H]1CCC[C@@H]1C(N)=O | – | – | Active | Active | –
CC(=O)N1CCC[C@@H]1C(=O)N1CCC[C@@H]1C(=O)N1CCC[C@@H]1C(=O)N1CCC[C@@H]1C(=O)N1CCC[C@@H]1C(=O)N1CCC[C@@H]1C(=O)N1CCC[C@@H]1C(=O)N1CCC[C@@H]1C(=O)N1CCC[C@@H]1C(N)=O | > 30000 | > 30000 | – | – | –
CC(=O)N[C@H]1CCC[C@@H]1C(=O)N[C@H]1CCC[C@@H]1C(=O)N[C@@H](CC(=O)N[C@H]1CCC[C@@H]1C(=O)N[C@H]1CCC[C@@H]1C(=O)N[C@H]1CCC[C@@H]1C(=O)N[C@H]1CCC[C@@H]1C(=O)N[C@H]1CCC[C@@H]1C(=O)N[C@H]1CCC[C@@H]1C(=O)N[C@H]1CCC[C@@H]1C(=O)N[C@H]1CCC[C@@H]1C(=O)N[C@H]1CCC[C@@H]1C(N)=O)[C@@H](C)O | – | – | inactive | inactive | –

Now from value to compound, other results behind:

IC50 (Gamma-secretase [1]) [nM] | IC50 (Gamma-secretase [2]) [nM] | inhibition [3] | inhibition [6] | Structure (SMILES) | further results
> 30000 | > 30000 | – | – | CC(=O)N1CCC[C@@H]1C(=O)N1CCC[C@@H]1C(=O)N1CCC[C@@H]1C(=O)N1CCC[C@@H]1C(=O)N1CCC[C@@H]1C(=O)N1CCC[C@@H]1C(N)=O | –
0.402 | 0.83 | Active | Active | CC(=O)N[C@H]1CCC[C@@H]1C(=O)N[C@H]1CCC[C@@H]1C(=O)NC(CO)CC(=O)N[C@H]1CCC[C@@H]1C(=O)N[C@H]1CCC[C@@H]1C(=O)N[C@H]1CCC[C@@H]1C(=O)N[C@H]1CCC[C@@H]1C(=O)N[C@H]1CCC[C@@H]1C(=O)N[C@H]1CCC[C@@H]1C(=O)N[C@H]1CCC[C@@H]1C(=O)N[C@H]1CCC[C@@H]1C(=O)N[C@H]1CCC[C@@H]1C(N)=O (single isomer, unassigned) | Activity [4]: Active; IC50 (Gamma-secretase [5]): 84.2 nM; IC50 (Gamma-secretase [7]): 41.3 nM; Ratio IC50 [8]: 0.478; IC50 (Gamma-secretase [9]): 86.4 nM; inhibition [10]: Active
> 30000 | > 30000 | – | – | CC(=O)N1CCC[C@H]1C(=O)N1CCC[C@H]1C(=O)N1CCC[C@H]1C(=O)N1CCC[C@H]1C(=O)N1CCC[C@H]1C(=O)N1CCC[C@H]1C(=O)N1CCC[C@H]1C(=O)N1CCC[C@H]1C(=O)N1CCC[C@H]1C(N)=O | –
2.47 | 7.47 | Active | Active | CC(=O)N[C@H]1CCC[C@@H]1C(=O)N[C@H]1CCC[C@@H]1C(=O)NCCC(=O)N[C@H]1CCC[C@@H]1C(=O)N[C@H]1CCC[C@@H]1C(=O)N[C@H]1CCC[C@@H]1C(=O)N[C@H]1CCC[C@@H]1C(=O)N[C@H]1CCC[C@@H]1C(=O)N[C@H]1CCC[C@@H]1C(=O)N[C@H]1CCC[C@@H]1C(=O)N[C@H]1CCC[C@@H]1C(=O)N[C@H]1CCC[C@@H]1C(N)=O | –
2280 | 5210 | – | – | CC(=O)N[C@H]1CCC[C@@H]1C(=O)N[C@H]1CCC[C@@H]1C(=O)N[C@H]1CCC[C@@H]1C(=O)N[C@H]1CCC[C@@H]1C(=O)N[C@H]1CCC[C@@H]1C(=O)N[C@H]1CCC[C@@H]1C(=O)N[C@H]1CCC[C@@H]1C(=O)N[C@H]1CCC[C@@H]1C(=O)N[C@H]1CCC[C@@H]1C(=O)N[C@H]1CCC[C@@H]1C(N)=O | –
244 | 225 | – | – | CC(=O)N[C@H]1CCC[C@@H]1C(=O)N[C@H]1CCC[C@@H]1C(=O)N[C@H]1CCC[C@@H]1C(=O)N[C@H]1CCC[C@@H]1C(=O)N[C@H]1CCC[C@@H]1C(=O)N[C@H]1CCC[C@@H]1C(=O)N[C@H]1CCC[C@@H]1C(=O)N[C@H]1CCC[C@@H]1C(=O)N[C@H]1CCC[C@@H]1C(=O)N[C@H]1CCC[C@@H]1C(=O)N[C@H]1CCC[C@@H]1C(N)=O | –
8.81 | 9.93 | – | – | CC(=O)N[C@H]1CCC[C@@H]1C(=O)N[C@H]1CCC[C@@H]1C(=O)N[C@H]1CCC[C@@H]1C(=O)N[C@H]1CCC[C@@H]1C(=O)N[C@H]1CCC[C@@H]1C(=O)N[C@H]1CCC[C@@H]1C(=O)N[C@H]1CCC[C@@H]1C(=O)N[C@H]1CCC[C@@H]1C(=O)N[C@H]1CCC[C@@H]1C(=O)N[C@H]1CCC[C@@H]1C(=O)N[C@H]1CCC[C@@H]1C(=O)N[C@H]1CCC[C@@H]1C(N)=O | IC50 (Gamma-secretase [5]): 1180 nM; IC50 (Gamma-secretase [7]): 20.4 nM; Ratio IC50 [8]: 0.0326; IC50 (Gamma-secretase [9]): 626 nM
203 | 414 | – | – | O=S(=O)(N[C@H](CO)C(C(F)(F)F)C(F)(F)F)c1ccc(Cl)s1 [BEGACESTAT] | –
0.555 | 0.88 | Active | Active | CC(=O)N[C@H]1CCC[C@@H]1C(=O)N[C@H]1CCC[C@@H]1C(=O)N[C@@H](CC(N)=O)CC(=O)N[C@H]1CCC[C@@H]1C(=O)N[C@H]1CCC[C@@H]1C(=O)N[C@H]1CCC[C@@H]1C(=O)N[C@H]1CCC[C@@H]1C(=O)N[C@H]1CCC[C@@H]1C(=O)N[C@H]1CCC[C@@H]1C(=O)N[C@H]1CCC[C@@H]1C(=O)N[C@H]1CCC[C@@H]1C(=O)N[C@H]1CCC[C@@H]1C(N)=O | Activity [4]: Active; IC50 (Gamma-secretase [5]): 84.6 nM; IC50 (Gamma-secretase [7]): 3.16 nM; Ratio IC50 [8]: 0.0462; IC50 (Gamma-secretase [9]): 68.4 nM; inhibition [10]: Active
